Data from patent US20080227128A1, “Resonance Energy Transfer System and Method” (Mount Sinai School of Medicine of New York University, priority 2004, published 2008).
Read-outs that look alike come from different tables or passages of the source. *: point of attachment. Biotin = O=C1N[C@H]2[C@H](CS[C@H]2CCCCC(=O)*)N1

Key:
PKA-Ala construct = assay: BRET assay, PKA-Ala construct; format: cell-based, Human
[1] = system: L1-BRET construct in ND7 cells; assay: BRET assay, L1-BRET construct in ND7 cells; format: cell-based
Text: (§1) To confirm that the effects of MEK inhibitors were due to the phosphorylation state of […] (SEQ ID NO: 1), the effect of PD98059 and U0126 was examined on the BRET ratio of the […] (SEQ ID NO: 3), […] (SEQ ID NO: 4), and […] (SEQ ID NO: 5) variant constructs. […] To determine whether components of the MAPK cascade are responsible for phosphorylating the FIGQY (SEQ ID NO: 12) sequence in other cell types, downstream of other RTKs, L1-BRET construct was transiently transfected into ND7 (neuroblastoma) and PC12 (pheochromocytoma) cells (Dunn et al. (1991) Brain Res. 545:80-86; Pang et al. (1995) J. Biol. Chem. 270:13585-13588).

[2] = system: […], […], […] variant constructs; format: cell-based, Human
L1-BRET construct = assay: BRET assay, L1-BRET construct transfected in HEK-293 cells; format: cell-based, Human; settings: for effect on the BRET ratio of the L1-BRET construct: HEK-293 cells; for effect on the BRET ratio of the L1-BRET construct / effect on the BRET ratio of EGF-stimulated cells: n=5; for effect on the BRET ratio of EGF-stimulated cells: src-family kinase inhibitors; for effect on the decrease in BRET ratio following EGF stimulation: pre-treating cells, genistein 100 μM
L1-SLADY BRET = assay: BRET assay, L1-SLADY BRET reporter in HEK-293 cells; format: cell-based, Human
Text: Another MAP kinase pathway reporter was constructed and tested using the methods described above and is outlined in the L1-SLADY BRET Data shown in FIGS. 5A, 5B, and 5C. The results of these figures are consistent with the other MAP kinase pathway data showing that the BRET system can be used as a MAP kinase pathway reporter.

endogenous L1-CAM = assay: Anti-phosphotyrosine immunoblot of endogenous L1-CAM, NGF-stimulated ND7 cells; format: cell-based; settings: 100 μM
Procedure: (§2) Near-confluent cultures of HEK-293 cells, stably transfected with either an acceptor-insert-donor construct, or CHIM construct (SEQ ID NO: 2); or ND7 cells were harvested with trypsin-EDTA and resuspended to a density of 6×10^5 cells/ml. Aliquots (5 ml) of cell suspensions were added to 100 mm cell culture dishes (Corning Incorporated Life Sciences, Acton, Mass.) and incubated for 12 hrs at 37° C. Stably transfected HEK-293 cells were treated with genistein for 4 hrs at 37° C; and ND7 cells were treated with 100 μM PD98059 for 1 h and with 100 ng/ml NGF for 15 min. […] The protein concentrations of the supernatants were determined by using the BCA (bicinchoninic acid) protein assay (Pierce Chemical Company, Rockford, Ill.). […] Immobilized protein A beads were washed and resuspended in Laemnuli buffer, analyzed by SDS-PAGE, and transferred to nitrocellulose membrane. […]
To determine whether the MAPK signaling cascade can modulate tyrosine phosphorylation of full-length L1-CAM, the effect of MEK inhibitors was examined on ND7 cells stimulated with NGF. Cell lysates were immunoprecipitated with an anti-L1-CAM Ab and subsequently analyzed by immunoblotting (FIG. 2F) with an anti-phosphotyrosine Ab to detect phosphorylated L1-CAM (upper blot). […]

KGGKY construct = assay: BRET assay, Src pathway reporter (KGGKY construct) in HEK-293 cells; format: cell-based, Human
Procedure: Using a target sequence derived from a tyrosine in the L1-CAM cytoplasmic tail, a reporter was generated encoding a 12 amino acid insert, including a terminal tyrosine ([…], SEQ ID NO: 13). […] However, the Src-family inhibitor PP1 causes an increase in the BRET efficiency at doses above 20 μM while a related inhibitor PP2 has no effect at similar doses (FIG. 9B, results are shown mean±standard deviation, *P<0.01). […] Fibroblasts derived from wild-type (+/+src) or Src-null (−/−src) mice were treated with FGF, which activates indirectly Src-family kinases.

[3] = system: L1-BRET construct in PC12 cells; assay: BRET assay, L1-BRET construct in PC12 cells; format: cell-based, rat; settings: pre-treated
Text: as §1

[4] = system: ankyrin B recruitment to the plasma membrane; assay: Ankyrin B recruitment to the plasma membrane (immunofluorescence), HEK-293 cells with L1-CAM and ankyrin-B GFP; format: cell-based, Human
Procedure: HEK-293 cells were transfected with cDNA encoding an amino-terminal myc-epitope tagged full-length wild-type neuronal adhesion protein L1-CAM and a carboxy-terminal GFP-tagged ankyrin B construct using lipofectamine reagents. […] For immunolocalization, cells were fixed for 10 min using 1% (w/v) paraformaldehyde in 60 mM Pipes, 25 mM Hepes, 10 mM EGTA, and 2 mM MgCl2. Staining was performed as described previously (Felsenfeld et al. (1999) Nat. Cell Biol. 1:200-6). Briefly, ankyrin B was detected by indirect immunofluorescence using a rabbit anti-GFP polyclonal Ab and a donkey anti-rabbit Ab conjugated to indodicarbocyanince Cy5. L1-CAM was detected by indirect immunofluorescence using a mouse anti-myc monoclonal Ab and a donkey anti-mouse Ab conjugated to indocarbocyanine Cy3. […] Images were analyzed using NIH ImageJ (National Institutes of Health, Bethesda, Md.). […] Signal maximum for ankyrin staining at the junction between cells was determined at the position of the maximal L1-CAM staining to ensure that membrane rather than juxtamembrane staining was quantified. Minima were determined from the regions of the line overlapping the cytoplasm of either of the two cells. Membrane localization index was determined using the equation index=max/(max-min) as described (Gil et al. (2003) J. Cell Biol. 162:719-30). […]

PKA construct = assay: BRET assay, PKA construct in HEK-293 cells; format: cell-based, Human; settings: kinase inhibitors
Text: A reporter was generated for PKA based on a target domain derived from fish connexin35 (Mitropoulou et al. (2003) J. Neurosci. Res. 72:147-157). The PKA insert target sequence ([…]) contains a carboxy-terminal serine phosphorylation target.

MEK = assay: In vitro kinase assay with purified MEK; format: biochemical; settings: for phosphorylation in the presence of purified MEK: substrate
myr-FIGQH, myr-FIGQF = settings: 20 μM U0126; tyrosine mutated to histidine or phenylalanine
Procedure: (§4) Near-confluent cultures of HEK-293 cells were harvested with trypsin-EDTA (0.05% trypsin, 0.53 mM EDTA; Invitrogen Corporation, Carlsbad, Calif.) and resuspended to a density of 2.5×10^5 cells/ml. Aliquots (200 μl) of cell suspensions were added to white 96-well culture plates (CulturPlate™; PerkinElmer Life Sciences, Boston, Mass.) and incubated for 12 hrs at 37° C. HEK-293 cells were transfected with 0.1 μg of DNA/well using lipofectamine reagents (Lipofectamine Plus and Lipofectamine™; Invitrogen) according to the manufacturer's instructions. After incubation of plates for 48 hrs at 37° C., the cells were washed once with warm Dulbecco's Modified Eagle's Medium (D-MEM) without phenol red (Invitrogen) supplemented with 25 mM Hepes (Invitrogen). […] The plates were immediately counted using the Fusion Universal Microplate Analyzer (PerkinElmer Life Sciences).
(§5) Bioluminescence resulting from Rluc emission was counted at 410 nm using a 370-450 nm band pass filter and the fluorescence of GFP2 was counted at 515 nm using a 500-530 nm band pass filter. The efficiency of energy transfer between Rluc and GFP2 is determined by dividing acceptor emission intensity (GFP2) by donor emission intensity (Rluc). […]

[5] = system: cerebellar granular neurons; assay: Neurite outgrowth assay on Ng-CAM; format: cell-based, mouse; settings: 10 μM U0126
Procedure: (§3) Neurite outgrowth experiments were performed as described (Gil et al. (2003) J. Cell Biol. 162:719-30) with slight modification. A 1 cm-diameter circle in a 35 mm petri dish (Becton Dickinson) was coated with poly-L-lysine (5 μg/ml in phosphate-buffered saline (PBS) from Speciality Media, Phillipsburg, N.J.) for 1 hr at room temperature. After several washes with PBS, the coated area was dried under the hood. Aliquots of 1 μl of neural-glial cell adhesion molecule (Ng-CAM, Gil et al. (2003) J. Cell Biol. 162:719-30) at 50 μg/ml or laminin at 30 μg/ml (Becton Dickinson) were spotted on the coated area. Dishes were incubated for 1 hr at room temperature, washed several times with PBS and then blocked with 1% (w/v) bovine serum albumin (BSA). Cerebellar cells were prepared from P2-P4 mouse and plated on the prepared dishes in BME/B27/glucose/glutamine/Pen-Strep media at a cell density of 3×10^5 cells/ml. Peptides and U0126 were diluted in DMSO (10 mg/ml for peptides, 13 mM for U0126) and further diluted in media (final concentration 10 μg/ml peptide; 10 μM U0126) which was added to the cultures when the cells were plated. Cultures were incubated for 2 days and fixed with 4% paraformaldehyde.

[6] = system: cerebellar granular neurons; assay: Neurite outgrowth assay on laminin; format: cell-based, mouse; settings: 10 μM U0126
Procedure: as §3

myr-L1-BRET = assay: BRET assay, myristoylated construct (myr-L1-BRET) in HEK-293 cells; format: cell-based, Human; settings: 20 μM U0126
Procedure: as §4, §5

L1-BRET protein = assay: Anti-phosphotyrosine immunoblot of L1-BRET protein, stably transfected HEK-293 cells; format: cell-based, Human; settings: pretreated with genistein 100 μM
Procedure: as §2
Immunoblot analysis was performed (FIG. 1G). Cell lysates were immunoprecipitated with an anti-GFP Ab and subsequently analyzed by immunoblotting with an anti-phosphotyrosine Ab to detect phosphorylated BRET constructs (upper blot). […] There was no phosphotyrosine detected in the CHIM construct (SEQ ID NO: 2) in the presence or absence of genistein, consistent with the idea that phosphorylation of the FIGQY (SEQ ID NO: 12) tyrosine is responsible for the changes observed in the spectrum of L1-BRET.

With Nc1ncnc2c1ncn2[C@@H]1O[C@@H]2COP(O)(=S)O[C@H]2[C@H]1O (single isomer, unassigned) [Sp-cAMPs, Adenosine-3′,5′-cyclic monophosphorothioate, Sp-isomer] as the molecule, how does the “effect on BRET ratio, serine mutated to alanine” value (PKA-Ala construct) read?
The value was “has no effect”.

What does the source list for COc1cccc(-c2cc(=O)c3ccccc3o2)c1N [PD98059]?
change in the BRET ratio of the L1-BRET construct in ND7 cells [1]: increases in the BRET ratio; change in the BRET ratio of the variant constructs with MEK inhibitors [2]: no change in the BRET ratio; effect on the BRET ratio of the L1-BRET construct (L1-BRET construct): increased the BRET ratio of the L1-BRET construct in a dose-dependent manner; effect on the decrease in BRET ratio (FIG. 5A, 5B) (L1-SLADY BRET): reverses the decrease in BRET ratio; level of tyrosine phosphorylation of endogenous L1-CAM (endogenous L1-CAM): marked decrease in the level of tyrosine phosphorylation; effect on this reporter (KGGKY construct; 100 μM): no detectible effect; change in the BRET ratio of the L1-BRET construct in PC12 cells [3]: increases in the BRET ratio; effect on the EGF-induced decrease in ankyrin B recruitment ([4]; 100 μM PD98059 with 100 ng/ml EGF): reversed

Cc1ccc(-c2nn(C(C)(C)C)c3ncnc(N)c23)cc1 [PP1] was tested. Which “effect on FRET efficiency of the PKA reporter” value (PKA construct) did it give?
Its value is “had no effect on FRET efficiency”.

What about the “effect on the BRET ratio of EGF-stimulated cells” value (L1-BRET construct) of the same molecule?
The value was “had no effect on the BRET ratio”.

And the “doses causing an increase in the BRET efficiency” value (KGGKY construct; dose response)?
Its value is “above 20 μM”.

How did the “effect on the BRET ratio of EGF-stimulated cells” value (L1-BRET construct) turn out when CC(C)(C)n1nc(-c2ccc(Cl)cc2)c2c(N)ncnc21 [PP2] was run?
Its value is “had no effect on the BRET ratio”.

What about the “effect on BRET efficiency at similar doses” value (KGGKY construct; doses similar to PP1 (above 20 μM)) of the same molecule?
The value was “has no effect”.

How did the “change in the BRET ratio of the L1-BRET construct in ND7 cells” value [1] turn out when N#CC(=C(/N)Sc1ccccc1N)/C(C#N)=C(\N)Sc1ccccc1N [U0126] was run?
Its value is “increases in the BRET ratio”.

And the “effect on the increase in phosphorylation of MEKSBS and […] peptide” value (MEK; purified MEK)?
Its value is “inhibited”.

And the “change in the BRET ratio of the variant constructs with MEK inhibitors” value ([2]; 100 μM)?
Its value is “no change in the BRET ratio”.

And the “effect on the BRET ratio of the L1-BRET construct” value (L1-BRET construct)?
The value was “increased the BRET ratio of the L1-BRET construct in a dose-dependent manner”.

And the “change in BRET ratio of mutated myristoylated constructs following inhibition of MEK” value (myr-FIGQH, myr-FIGQF)?
Its value is “abolishes the increase in BRET ratio”.

What about the mean neurite length [5] of the same molecule?
The mean neurite length was “reduces mean neurite length”.

What about the “axon growth on laminin” value [6] of the same molecule?
Its value is “inhibited”.

And the “change in BRET ratio of the myristoylated construct following inhibition of MEK” value (myr-L1-BRET)?
The value was “increase in BRET ratio”.

And the “change in the BRET ratio of the L1-BRET construct in PC12 cells” value [3]?
Its value is “increases in the BRET ratio”.

Which “effect on the decrease in BRET ratio following EGF stimulation” value (L1-BRET construct) does the source give for O=c1c(-c2ccc(O)cc2)coc2cc(O)ccc12 [daidzein] here?
The value was “had no effect”.

With COC(=O)C=Cc1cc(O)ccc1O [erbstatin analog, methyl 2,5-dihydroxycinnamate] as the molecule, how does the “effect on the BRET ratio of the L1-BRET construct” value (L1-BRET construct) read?
Its value is “increased the BRET ratio of the L1-BRET construct in a dose-dependent manner”.

How did the “change in the BRET ratio of the L1-BRET construct in ND7 cells” value [1] turn out when O=c1c(-c2ccc(O)cc2)coc2cc(O)cc(O)c12 [genistein] was run?
Its value is “increase in the BRET ratio”.

And the “effect on the decrease in BRET ratio following EGF stimulation” value (L1-BRET construct)?
The value was “reversed”.

And the “tyrosine phosphorylation of L1-BRET protein” value (L1-BRET protein)?
The value was “completely inhibited”.

And the “effect on the decrease in BRET ratio (FIG. 5A, 5B)” value (L1-SLADY BRET)?
Its value is “reversing the decrease in BRET ratio”.

What about the “effect on EGF-dependent decrease in BRET efficiency” value (KGGKY construct; 100 μM genistein, 100 ng/ml EGF) of the same molecule?
Its value is “reversed”.

Biotin-ADPDHDHTGFLTEYVATRW-OH [MEKSBS] was tested. Which “phosphorylation in the presence of purified MEK” value (MEK) did it give?
The value was “phosphorylated”.

For “EGF: Epidermal growth factor (EGF), obtained from Sigma-Aldrich”, which “level of ankyrin B recruited to the plasma membrane” value ([4]; 100 ng/ml EGF) is on record?
Its value is “decrease in the level of ankyrin B recruited to the plasma membrane”.

“KPLGSDDSLADY [L1-derived peptide phosphorylated by purified MEK]” was tested. Which “phosphorylation in the presence of purified MEK” value (MEK) did it give?
Its value is “phosphorylated”.
